Results reported in patent publication US7125990B2, “Imidazolyl derivatives as corticotropin releasing factor inhibitors” (Bristol-Myers Squibb COmpany, priority 2001, dated 2006).

biological target: T1, CRF1 receptors (Homo sapiens, UniProt P34998); assay: CRF1 receptor radioligand binding assay ([125I]-oCRF competition, IMR-32 cell membranes); conditions: IMR-32 cell membranes, [125I]-oCRF 100 pM; read-out: Ki (CRF-1R)
T1 construct: endogenous in cells; host or cells: IMR-32 cells, transformed with 2.5 µM 5'-bromo-2'-deoxyuridine for 10 days; membrane preparation
T1 sequence (P34998 24-415): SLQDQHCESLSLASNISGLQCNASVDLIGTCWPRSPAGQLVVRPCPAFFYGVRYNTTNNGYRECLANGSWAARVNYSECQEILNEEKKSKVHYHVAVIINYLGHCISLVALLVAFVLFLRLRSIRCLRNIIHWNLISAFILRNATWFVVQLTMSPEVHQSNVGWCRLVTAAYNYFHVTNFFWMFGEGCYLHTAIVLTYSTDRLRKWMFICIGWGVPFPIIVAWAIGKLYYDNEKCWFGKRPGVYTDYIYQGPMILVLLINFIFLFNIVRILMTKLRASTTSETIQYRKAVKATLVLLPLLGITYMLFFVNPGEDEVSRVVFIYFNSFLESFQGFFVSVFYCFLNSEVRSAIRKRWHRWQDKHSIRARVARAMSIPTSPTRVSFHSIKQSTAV
In short: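 Buffer: Tris pH 7.2 with MgCl2, BSA, Triton X-100, aprotinin, leupeptin; reaction stopped with ice-cold wash and filtered. Nonspecific binding set with 10 μM oCRF.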

Compound	Ki
CCCN(Cc1ccccc1)Cc1c(C(F)(F)F)nc2n(-c3c(C)cc(C)cc3C)c3ccccc3n12 [Example 175, Benzyl-propyl-[2-trifluoromethyl-8-(2,4,6-trimethyl-phenyl)-8H-1,3a,8-triaza-cyclopenta[α]inden-3-ylmethyl]-amine]	< 10 µM
CCCCN(Cc1ccccc1)Cc1c(C(F)(F)F)nc2n(-c3c(C)cc(C)cc3C)c3ccccc3n12 [Example 176, Benzyl-butyl-[2-trifluoromethyl-8-(2,4,6-trimethyl-phenyl)-8H-1,3a,8-triaza-cyclopenta[α]inden-3-ylmethyl]-amine]	< 10 µM
CCCN(CCc1ccccc1)Cc1c(C(F)(F)F)nc2n(-c3ccc(Cl)cc3Cl)c3ccccc3n12 [Example 182, [8-(2,4-Dichloro-phenyl)-2-trifluoromethyl-8H-1,3a,8-triaza-cyclopenta[α]inden-3-ylmethyl]-phenethyl-propyl-amine]	< 10 µM
FC(F)(F)c1nc2n(-c3ccc(Cl)cc3Cl)c3ccccc3n2c1CN(CC1CC1)CC(F)(F)C(F)(F)F [Example 183, Cyclopropylmethyl-[8-(2,4-dichloro-phenyl)-2-trifluoromethyl-8H-1,3a,8-triaza-cyclopenta[α]inden-3-ylmethyl]-(2,2,3,3,3-pentafluoro-propyl)-amine]	< 10 µM
C=CCN(CC=C)Cc1c(C(F)(F)F)nc2n(-c3ccc(Cl)cc3Cl)c3ccccc3n12 [Example 184, Diallyl-[8-(2,4-dichloro-phenyl)-2-trifluoromethyl-8H-1,3a,8-triaza-cyclopenta[α]inden-3-ylmethyl]-amine]	< 10 µM
CC(C)c1ccc(-n2c3ccccc3n3c(CN(CC4CC4)CC4CC4)c(C(F)(F)F)nc23)c(Br)c1 [Example 187, [8-(2-Bromo-4-isopropyl-phenyl)-2-trifluoromethyl-8H-1,3a,8-triaza-cyclopenta[α]inden-3-ylmethyl]-bis-cyclopropylmethyl-amine]	< 0.1 µM
CC(C)c1ccc(-n2c3ccccc3n3c(CN(CC4CC4)CC(F)(F)F)c(C(F)(F)F)nc23)c(Br)c1 [Example 188, [8-(2-Bromo-4-isopropyl-phenyl)-2-trifluoromethyl-8H-1,3a,8-triaza-cyclopenta[α]inden-3-ylmethyl]-cyclopropylmethyl-(2,2,2-trifluoro-ethyl)-amine]	< 0.1 µM
CC(C)c1ccc(-n2c3ccccc3n3c(CN(CCC(F)(F)F)CC4CC4)c(C(F)(F)F)nc23)c(Br)c1 [Example 189, [8-(2-Bromo-4-isopropyl-phenyl)-2-trifluoromethyl-8H-1,3a,8-triaza-cyclopenta[α]inden-3-ylmethyl]-cyclopropylmethyl-(3,3,3-trifluoro-propyl)-amine]	< 1 µM
CCN(Cc1c(C(F)(F)F)nc2n(-c3ccc(C(C)C)cc3Br)c3ccccc3n12)CC1CC1 [Example 190, [8-(2-Bromo-4-isopropyl-phenyl)-2-trifluoromethyl-8H-1,3a,8-triaza-cyclopenta[α]inden-3-ylmethyl]-cyclopropylmethyl-ethyl-amine]	< 1 µM
CC(C)c1ccc(-n2c3ccccc3n3c(CN(CC4CC4)CC(F)(F)C(F)(F)F)c(C(F)(F)F)nc23)c(Br)c1 [Example 191, [8-(2-Bromo-4-isopropyl-phenyl)-2-trifluoromethyl-8H-1,3a,8-triaza-cyclopenta[α]inden-3-ylmethyl]-cyclopropylmethyl-(2,2,3,3,3-pentafluoro-propyl)-amine]	< 1 µM
C=CCN(CC=C)Cc1c(C(F)(F)F)nc2n(-c3ccc(C(C)C)cc3Br)c3ccccc3n12 [Example 192, Diallyl-[8-(2-bromo-4-isopropyl-phenyl)-2-trifluoromethyl-8H-1,3a,8-triaza-cyclopenta[α]inden-3-ylmethyl]-amine]	< 1 µM
CCCN(CCc1ccccc1)Cc1c(C(F)(F)F)nc2n(-c3ccc(C(C)C)cc3Br)c3ccccc3n12 [Example 193, [8-(2-Bromo-4-isopropyl-phenyl)-2-trifluoromethyl-8H-1,3a,8-triaza-cyclopenta[α]inden-3-ylmethyl]-phenethyl-propyl-amine]	< 1 µM
CC(C)c1ccc(-n2c3ccccc3n3c(CN(CC4CCC4)CC(F)(F)F)c(C(F)(F)F)nc23)c(Br)c1 [Example 194, [8-(2-Bromo-4-isopropyl-phenyl)-2-trifluoromethyl-8H-1,3a,8-triaza-cyclopenta[α]inden-3-ylmethyl]-cyclobutylmethyl-(2,2,2-trifluoro-ethyl)-amine]	< 1 µM
CCN(CCc1ccccc1)Cc1c(C(F)(F)F)nc2n(-c3ccc(C(C)C)cc3Br)c3ccccc3n12 [Example 196, [8-(2-Bromo-4-isopropyl-phenyl)-2-trifluoromethyl-8H-1,3a,8-triaza-cyclopenta[α]inden-3-ylmethyl]-ethyl-phenethyl-amine]	< 1 µM
CCCN(CCC(F)(F)F)Cc1c(C(F)(F)F)nc2n(-c3ccc(C(C)C)cc3Br)c3ccccc3n12 [Example 197, [8-(2-Bromo-4-isopropyl-phenyl)-2-trifluoromethyl-8H-1,3a,8-triaza-cyclopenta[α]inden-3-ylmethyl]-propyl-(3,3,3-trifluoro-propyl)-amine]	< 1 µM
C=CCN(CCC)Cc1c(C(F)(F)F)nc2n(-c3ccc(C(C)C)cc3Br)c3ccccc3n12 [Example 198, Allyl-[8-(2-bromo-4-isopropyl-phenyl)-2-trifluoromethyl-8H-1,3a,8-triaza-cyclopenta[α]inden-3-ylmethyl]-propyl-amine]	< 1 µM
CC(C)c1ccc(-n2c3ccccc3n3c(CN(CCC(F)(F)F)Cc4ccc(F)cc4)c(C(F)(F)F)nc23)c(Br)c1 [Example 199, [8-(2-Bromo-4-isopropyl-phenyl)-2-trifluoromethyl-8H-1,3a,8-triaza-cyclopenta[α]inden-3-ylmethyl]-(4-fluoro-benzyl)-(3,3,3-trifluoro-propyl)-amine]	< 10 µM
CCCN(Cc1c(C(F)(F)F)nc2n(-c3ccc(C(C)C)cc3Br)c3ccccc3n12)CC(F)(F)F [Example 200, [8-(2-Bromo-4-isopropyl-phenyl)-2-trifluoromethyl-8H-1,3a,8-triaza-cyclopenta[α]inden-3-ylmethyl]-propyl-(2,2,2-trifluoro-ethyl)-amine]	< 10 µM
CC(C)c1ccc(-n2c3ccccc3n3c(CN(CCc4ccccc4)CC(F)(F)F)c(C(F)(F)F)nc23)c(Br)c1 [Example 201, [8-(2-Bromo-4-isopropyl-phenyl)-2-trifluoromethyl-8H-1,3a,8-triaza-cyclopenta[α]inden-3-ylmethyl]-phenethyl-(2,2,2-trifluoro-ethyl)-amine]	< 10 µM

The next lines start with the values.

Ki	Compound
< 1 µM	FC(F)(F)c1nc2n(-c3ccc(Cl)cc3Cl)c3ccccc3n2c1CN(CC1CC1)CC1CC1 [Example 177, Bis-cyclopropylmethyl-[8-(2,4-dichloro-phenyl)-2-trifluoromethyl-8H-1,3a,8-triaza-cyclopenta[α]inden-3-ylmethyl]-amine]
< 1 µM	CCCN(Cc1c(C(F)(F)F)nc2n(-c3ccc(Cl)cc3Cl)c3ccccc3n12)CC1CC1 [Example 178, Cyclopropylmethyl-[8-(2,4-dichloro-phenyl)-2-trifluoromethyl-8H-1,3a,8-triaza-cyclopenta[α]inden-3-ylmethyl]-propyl-amine]
< 1 µM	FC(F)(F)CN(Cc1c(C(F)(F)F)nc2n(-c3ccc(Cl)cc3Cl)c3ccccc3n12)CC1CC1 [Example 179, Cyclopropylmethyl-[8-(2,4-dichloro-phenyl)-2-trifluoromethyl-8H-1,3a,8-triaza-cyclopenta[α]inden-3-ylmethyl]-(2,2,2-trifluoro-ethyl)-amine]
< 10 µM	FC(F)(F)CCN(Cc1c(C(F)(F)F)nc2n(-c3ccc(Cl)cc3Cl)c3ccccc3n12)CC1CC1 [Example 180, Cyclopropylmethyl-[8-(2,4-dichloro-phenyl)-2-trifluoromethyl-8H-1,3a,8-triaza-cyclopenta[α]inden-3-ylmethyl]-(3,3,3-trifluoro-propyl)-amine]
< 10 µM	CCN(Cc1c(C(F)(F)F)nc2n(-c3ccc(Cl)cc3Cl)c3ccccc3n12)CC1CC1 [Example 181, Cyclopropylmethyl-[8-(2,4-dichloro-phenyl)-2-trifluoromethyl-8H-1,3a,8-triaza-cyclopenta[α]inden-3-ylmethyl]-ethyl-amine]
< 10 µM	FC(F)(F)CN(Cc1c(C(F)(F)F)nc2n(-c3ccc(Cl)cc3Cl)c3ccccc3n12)CC1CCC1 [Example 185, Cyclobutylmethyl-[8-(2,4-dichloro-phenyl)-2-trifluoromethyl-8H-1,3a,8-triaza-cyclopenta[α]inden-3-ylmethyl]-(2,2,2-trifluoro-ethyl)-amine]
< 10 µM	CCCN(Cc1c(C(F)(F)F)nc2n(-c3ccc(Cl)cc3Cl)c3ccccc3n12)CC1CCC1 [Example 186, Cyclobutylmethyl-[8-(2,4-dichloro-phenyl)-2-trifluoromethyl-8H-1,3a,8-triaza-cyclopenta[α]inden-3-ylmethyl]-propyl-amine]
< 1 µM	CCCN(Cc1c(C(F)(F)F)nc2n(-c3ccc(C(C)C)cc3Br)c3ccccc3n12)CC1CCC1 [Example 195, [8-(2-Bromo-4-isopropyl-phenyl)-2-trifluoromethyl-8H-1,3a,8-triaza-cyclopenta[α]inden-3-ylmethyl]-cyclobutylmethyl-propyl-amine]
